Data on 4 compounds can be found in patent US12492163B2, “9H-fluorene derivatives or their pharmaceutically acceptable salts” (priority 2020, dated 2025).

Assay [1] deals with horse plasma butyrylcholinesterase (eqBuChE) (Equus caballus (Horse), UniProt P81908). The experiment in a line: Ellman's test, inhibition of horse plasma butyrylcholinesterase. The class given is biochemical. The protocol:
(§1) The spectrophotometric Ellman's test [Ellman et al.] modified for assays in 96-well plates was used to test the activity. Reagents: 5,5′-dithiobis-(2-nitrobenzoic acid) (DTNB), eqBuChE and butyrylthiocholine iodide (BTC) were purchased from Sigma-Aldrich (Steinheim, Germany). hBuChE was from Vivonics (Bedford, MA, USA). The enzymes were prepared by dissolving in demineralized water to a concentration of 0.384 U/ml. Stock solutions of test compounds were prepared by dissolving in DMSO to a concentration of 0.0034 M. They were then diluted with water to obtain the appropriate concentrations in the wells. In the first step of the test, 25 μl of test compound (or DMSO/water mixture at the appropriate ratio for blank samples) was incubated in 0.1 M phosphate buffer (200 μl, pH=8.0) with DTNB (20 μl; 0.0025M) and with the appropriate enzyme (20 μl; eqBuChE or hBuChE) at 25° C. (animal enzyme) or 36° C. (human enzyme). After a 5 minutes incubation period, 20 μl of BTC solution (0.00375 M) was added. After another 5 minutes, the changes in absorbance of the solutions were measured at 412 nm using a multifunctional microplate reader (EnSpire Multimode; PerkinElmer; Waltham, MA, USA). All compounds were tested at a screening concentration of 10 μM (eqBuChE) or 1 μM (hBuChE). The percentage of enzyme inhibition was calculated from the equation 100-(S/B)×100, where S and B were the enzymatic activity in the test sample well and in the well without sample, respectively. […] All reactions were performed in triplicate. IC50 values were calculated using non-linear regression (GraphPad Prism 5 [GraphPad Software, San Diego, CA, USA 5.00]) for the percentage of enzyme inhibition against the inhibitor concentration used. Tacrine and donepezil were used as reference compounds.

The target in a further assay is mGAT2 (Mus musculus (Mouse), UniProt P31651). The experiment in a line: [3H]GABA uptake inhibition, mGAT2 in HEK293 cells. The format is cell-based. The conditions noted are these: for percentage of [3H]GABA reuptake retained, mGAT2: inhibitor at 100 μM, remaining reuptake. The protocol:
(§2) Exemplary compounds according to the invention were screened at the Ludwig-Maximilian University of Munich to determine the inhibitory ability towards four mouse GAT transporters (mGAT1-mGAT4). […] The biological material was stably transfected human embryonic kidney HEK293 cells, expressing genes to the appropriate transporters. The generated radioactivity was measured with a liquid scintillation counter. […] These determinations were made according to the procedure described in detail in A. Kragler, G. Höfner, K. T. Wanner, Novel parent structures for inhibitors of the murine GABA transporters mGAT3 and mGAT4, Eur. J. Pharmacol. 519 (2005) 43-47.

In assay [2] the target is Recombinant human Aβ1-42 peptide (Homo sapiens (Human), UniProt P05067). The experiment in a line: Thioflavin T test, antiaggregation activity against beta-amyloid. The format is biochemical. The settings on record: 10 μM test compound, 1.5 μM Aβ1-42; read-out: inh. Aβ aggr. % inh. As to the method: The thioflavin T test [Levine III] was used for the determinations. Recombinant human Aβ1-42 peptide (HFIP pretreated, Merck Millipore, Darmstadt, Germany) was dissolved in DMSO to form a 75 μM stock solution. The solution was further diluted in HEPES buffer (150 mM HEPES, pH 7.4, 150 mM NaCl) to a concentration of 7.5 μM. Then, the Aβ1-42 solution was added to the test compounds (black 96-well plates were used) and diluted with thioflavin T solution (10 μM final concentration). The final mixture contained 1.5 μM Aβ1-42, 10 μM test compound, and 3% of DMSO. Fluorescence was measured every 300 s (excitation wavelength was 440 nm, emission wavelength was 490 nm) with continuous mixing between measurements. A multifunction microplate reader (Synergy H4; BioTek Instruments, Inc., Winooski, VT, USA) was used to measure the fluorescence. Fluorescence started increasing after approximately 4 hours, plateaued after 20 hours and remained virtually unchanged for the next 28 hours of incubation. The plateau-phase fluorescence intensities (in the presence and absence of test compounds) were averaged and the mean fluorescence values for the respective wells at t=0 h were subtracted from them. […] IC50 values were calculated using non-linear regression (GraphPad Prism 5 [GraphPad Software, San Diego, CA, USA 5.00]) for the percentage of aggregation inhibition against the inhibitor concentration used.
Chain of Recombinant human Aβ1-42 peptide (P05067 672-713): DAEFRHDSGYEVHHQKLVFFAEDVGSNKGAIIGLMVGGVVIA

For a further assay, the target named is mGAT4 (Mus musculus (Mouse), UniProt P31650). As to the kind of experiment: [3H]GABA uptake inhibition, mGAT4 in HEK293 cells. The settings on record: for percentage of [3H]GABA reuptake retained, mGAT4: inhibitor at 100 μM, remaining reuptake; for IC50: GABA reuptake, read-out: pIC50 (+/−SEM) mGAT4 (converted). The format is cell-based. As to the method:
as §2

Another assay addresses mGAT1 (Mus musculus (Mouse), UniProt P31648). As to the kind of experiment: [3H]GABA uptake inhibition, mGAT1 in HEK293 cells. The class given is cell-based. The settings on record: for pIC50 (+/−SEM) mGAT1: GABA reuptake. The protocol: as §2
Assay [3] addresses human recombinant beta-secretase (hBACE1) (Homo sapiens (Human), UniProt P56817). As to the kind of experiment: FRET assay, inhibition of human recombinant beta-secretase. The class given is biochemical. The conditions noted are these: for inhibition at 50 µM: 50 μM inhibitor concentration, read-out: hBACE-1 % inh; for IC50: read-out: hBACE-1 IC50. The protocol:
The FRET assay [Vassar, et al.] was used to test activity using 384-well black plates and a microplate reader (EnSpire Multimode; PerkinElmer; Waltham, MA, USA). The test was purchased from Life Technologies Polska Sp. z o.o. (Warsaw, Poland). […] Stock solutions of test compounds were prepared in DMSO and then further diluted with assay buffer (50 mM sodium acetate; pH 4.5) to the appropriate concentrations in the wells. In the first step of the test, 10 μl of the substrate (Rh-[…] quencher, based on the so-called Swedish APP mutation) was mixed with 10 μl of the test compound (or assay buffer; for blank sample). The enzyme reaction was initiated by adding 10 μl of enzyme (hBACE1, 1 U/ml). The reaction mixture was incubated at 25° C. for 60 minutes, then 10 μL of Stop solution (2.5 M sodium acetate) was added. After stopping the reaction, fluorescence was measured at 576 nm. The percentage of enzyme inhibition was calculated from the formula [1−(S60−S0)/(C60−C0)]×100, where S0 and S60 are the fluorescence of the test sample (containing the enzyme, substrate and test compound) at the start of the reaction and after 60 minutes, respectively, whereas C0 and C60 were analogous fluorescence intensities in the blank samples (containing enzyme, substrate and buffer). All test compounds were tested at a concentration of 50 μM in triplicate. […] A BACE1 IV inhibitor (Calbiochem, Merck; Nottingham, UK) [Stachel et al.] was used as a reference compound. […] IC50 values for all test compounds were calculated using non-linear regression (GraphPad Prism 5 [GraphPad Software, San Diego, CA, USA 5.00]) for the percentage of enzyme inhibition against the inhibitor concentration used.

The target in the next assay is mGAT3 (Mus musculus (Mouse), UniProt P31649). The experiment in a line: [3H]GABA uptake inhibition, mGAT3 in HEK293 cells. The format is cell-based. The conditions noted are these: for percentage of [3H]GABA reuptake retained, mGAT3: inhibitor at 100 μM, remaining reuptake; for pIC50 (+/−SEM) mGAT3: GABA reuptake. As to the method: as §2
Chain of mGAT3 (P31649 whole entry): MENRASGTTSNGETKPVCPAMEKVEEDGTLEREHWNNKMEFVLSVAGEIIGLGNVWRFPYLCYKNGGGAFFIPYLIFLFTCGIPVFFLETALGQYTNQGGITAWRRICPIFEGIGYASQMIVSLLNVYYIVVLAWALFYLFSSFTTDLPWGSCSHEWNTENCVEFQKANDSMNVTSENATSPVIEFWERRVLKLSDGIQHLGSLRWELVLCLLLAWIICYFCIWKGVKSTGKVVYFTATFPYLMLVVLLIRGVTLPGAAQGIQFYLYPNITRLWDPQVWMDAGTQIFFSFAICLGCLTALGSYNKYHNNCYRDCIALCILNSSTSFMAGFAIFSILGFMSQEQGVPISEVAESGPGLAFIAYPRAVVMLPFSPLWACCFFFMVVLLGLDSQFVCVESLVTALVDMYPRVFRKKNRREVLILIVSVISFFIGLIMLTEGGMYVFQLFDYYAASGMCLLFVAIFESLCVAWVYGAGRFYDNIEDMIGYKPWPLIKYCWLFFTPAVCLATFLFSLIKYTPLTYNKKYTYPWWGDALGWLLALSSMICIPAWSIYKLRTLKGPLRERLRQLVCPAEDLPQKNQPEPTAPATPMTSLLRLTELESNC
For assay [4], the target named is human plasma butyrylcholinesterase (hBuChE) (Homo sapiens (Human), UniProt P06276). The experiment in a line: Ellman's test, inhibition of human plasma butyrylcholinesterase. The format is biochemical. The protocol: as §1
Chain of human plasma butyrylcholinesterase (hBuChE) (P06276 29-602): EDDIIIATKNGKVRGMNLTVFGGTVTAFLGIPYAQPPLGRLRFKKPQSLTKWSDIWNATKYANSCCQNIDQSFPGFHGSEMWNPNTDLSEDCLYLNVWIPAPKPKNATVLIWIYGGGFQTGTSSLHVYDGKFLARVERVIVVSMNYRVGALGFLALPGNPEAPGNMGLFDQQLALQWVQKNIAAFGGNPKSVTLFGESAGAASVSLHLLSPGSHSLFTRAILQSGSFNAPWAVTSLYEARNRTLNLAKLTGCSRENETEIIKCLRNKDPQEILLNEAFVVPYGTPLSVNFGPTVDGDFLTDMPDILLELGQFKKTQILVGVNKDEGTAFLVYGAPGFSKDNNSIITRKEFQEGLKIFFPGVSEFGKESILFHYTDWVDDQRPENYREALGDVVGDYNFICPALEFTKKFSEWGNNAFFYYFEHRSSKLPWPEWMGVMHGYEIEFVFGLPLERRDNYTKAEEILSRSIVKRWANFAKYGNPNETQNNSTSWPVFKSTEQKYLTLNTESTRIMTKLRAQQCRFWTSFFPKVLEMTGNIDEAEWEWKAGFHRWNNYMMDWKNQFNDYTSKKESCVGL

Structures are written as SMILES.

Chain of mGAT2 (P31651 whole entry): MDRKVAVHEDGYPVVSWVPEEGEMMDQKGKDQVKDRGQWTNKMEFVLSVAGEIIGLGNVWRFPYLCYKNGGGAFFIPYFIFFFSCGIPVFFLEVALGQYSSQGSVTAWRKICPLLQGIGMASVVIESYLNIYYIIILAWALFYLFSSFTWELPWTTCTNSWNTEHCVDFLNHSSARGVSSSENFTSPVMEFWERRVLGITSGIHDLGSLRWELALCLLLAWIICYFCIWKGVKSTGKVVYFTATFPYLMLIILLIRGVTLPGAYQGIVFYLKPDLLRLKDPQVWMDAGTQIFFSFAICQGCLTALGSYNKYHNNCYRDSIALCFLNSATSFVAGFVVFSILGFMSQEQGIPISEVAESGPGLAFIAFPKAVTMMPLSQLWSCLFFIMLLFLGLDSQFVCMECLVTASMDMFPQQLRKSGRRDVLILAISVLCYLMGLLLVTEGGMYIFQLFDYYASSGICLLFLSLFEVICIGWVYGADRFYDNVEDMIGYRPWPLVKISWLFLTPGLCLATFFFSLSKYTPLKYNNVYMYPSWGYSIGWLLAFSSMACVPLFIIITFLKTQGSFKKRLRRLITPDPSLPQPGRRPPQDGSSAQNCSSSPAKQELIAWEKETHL
Chain of mGAT4 (P31650 whole entry): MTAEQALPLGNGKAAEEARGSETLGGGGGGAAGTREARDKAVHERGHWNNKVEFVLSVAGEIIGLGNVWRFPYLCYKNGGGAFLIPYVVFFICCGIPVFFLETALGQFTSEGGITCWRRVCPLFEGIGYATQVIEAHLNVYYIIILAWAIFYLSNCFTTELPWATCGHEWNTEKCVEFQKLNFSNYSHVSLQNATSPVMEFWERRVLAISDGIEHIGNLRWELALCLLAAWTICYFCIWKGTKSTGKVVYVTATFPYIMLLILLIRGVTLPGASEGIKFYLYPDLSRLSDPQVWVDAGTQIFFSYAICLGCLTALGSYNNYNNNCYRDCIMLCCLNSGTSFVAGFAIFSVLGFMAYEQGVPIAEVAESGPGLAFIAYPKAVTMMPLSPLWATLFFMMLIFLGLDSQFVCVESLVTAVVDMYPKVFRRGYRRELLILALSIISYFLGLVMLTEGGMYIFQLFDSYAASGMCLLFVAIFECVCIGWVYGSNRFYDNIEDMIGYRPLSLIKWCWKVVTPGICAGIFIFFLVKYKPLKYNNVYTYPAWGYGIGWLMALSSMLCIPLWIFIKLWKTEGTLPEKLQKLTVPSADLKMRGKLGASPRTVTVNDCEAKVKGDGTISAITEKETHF
Chain of human recombinant beta-secretase (hBACE1) (P56817 46-501): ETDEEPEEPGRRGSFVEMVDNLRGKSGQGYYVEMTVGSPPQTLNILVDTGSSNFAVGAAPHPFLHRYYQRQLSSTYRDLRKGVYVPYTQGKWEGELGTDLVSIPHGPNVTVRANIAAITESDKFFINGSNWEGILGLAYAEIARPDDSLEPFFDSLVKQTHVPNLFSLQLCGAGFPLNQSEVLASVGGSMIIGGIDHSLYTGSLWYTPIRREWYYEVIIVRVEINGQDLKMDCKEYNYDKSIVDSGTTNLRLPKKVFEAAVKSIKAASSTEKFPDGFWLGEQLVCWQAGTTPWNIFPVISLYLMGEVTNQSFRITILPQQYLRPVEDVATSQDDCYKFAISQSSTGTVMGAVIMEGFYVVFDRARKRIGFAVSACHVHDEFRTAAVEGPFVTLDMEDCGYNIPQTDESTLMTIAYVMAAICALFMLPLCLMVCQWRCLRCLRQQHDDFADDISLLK
Chain of horse plasma butyrylcholinesterase (eqBuChE) (P81908 whole entry): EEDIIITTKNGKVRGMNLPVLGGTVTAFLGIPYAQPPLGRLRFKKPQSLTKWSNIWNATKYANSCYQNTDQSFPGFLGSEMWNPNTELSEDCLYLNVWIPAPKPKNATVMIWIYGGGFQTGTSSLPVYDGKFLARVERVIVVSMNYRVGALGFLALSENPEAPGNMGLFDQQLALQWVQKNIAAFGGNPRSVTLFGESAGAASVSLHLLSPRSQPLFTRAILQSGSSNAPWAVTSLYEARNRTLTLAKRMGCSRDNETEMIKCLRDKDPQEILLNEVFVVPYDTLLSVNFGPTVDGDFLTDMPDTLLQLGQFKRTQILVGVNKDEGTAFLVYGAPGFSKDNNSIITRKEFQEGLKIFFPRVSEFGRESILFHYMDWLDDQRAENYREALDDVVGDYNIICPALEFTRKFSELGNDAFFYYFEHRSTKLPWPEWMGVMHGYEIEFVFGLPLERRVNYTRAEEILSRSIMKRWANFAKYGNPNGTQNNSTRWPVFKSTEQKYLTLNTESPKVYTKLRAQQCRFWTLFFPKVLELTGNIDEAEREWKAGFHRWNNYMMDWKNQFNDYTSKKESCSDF

Take `C[C@H](NC[C@@H](O)[C@H](Cc1ccccc1)NC(=O)C1c2ccccc2-c2ccccc21)c1ccccc1` [Compound 22, N-((2S,3R)-3-hydroxy-1-phenyl-4-(((S)-1-phenylethyl)amino)butan-2-yl)-9H-fluorene-9-carboxamide]: the inhibition at 10 µM in assay [1] (10 μM inhibitor concentration, read-out: eqBuChE percent inhibition of enzyme) is 42%; in assay [2] it was less than 10%. For the same compound, the “percentage of [3H]GABA reuptake retained, mGAT2” value (from here on “percentage … mGAT2”) on mGAT2 stood at 97%. For the same compound, on mGAT4, the “percentage of [3H]GABA reuptake retained, mGAT4” value was 69%. On mGAT1 (inhibitor at 100 μM, remaining reuptake), the “percentage of [3H]GABA reuptake retained, mGAT1” value is on record as 83%. In addition, in assay [3], the inhibition at 50 µM came to 72.6%. For the same compound, the “percentage of [3H]GABA reuptake retained, mGAT3” value at mGAT3 was 90%. The inhibition at 1 µM in assay [4] (1 μM inhibitor concentration, read-out: hBuChE % inh) is less than 10%.
Regarding `C[C@H](NC[C@@H](O)[C@H](Cc1ccccc1)NC(=O)CC1c2ccccc2-c2ccccc21)c1ccccc1` [Compound 23, 2-(9H-fluoren-9-yl)-N-((2S,3R)-3-hydroxy-1-phenyl-4-(((S)-1-phenylethyl)amino)butan-2-yl)acetamide], the IC50 in assay [1] is 8.86 µM; on mGAT2 (GABA reuptake, read-out: pIC50 (+/−SEM) mGAT2 (converted)) it was 14.5 µM; in assay [3] it was 7.36 µM; in assay [4] it was 0.558 µM. Also, in assay [2], the inhibition at 10 µM turned out to be 59.4%. Besides, the “percentage of [3H]GABA reuptake retained, mGAT4” value on mGAT4 stood at 61%. The “pIC50 (+/−SEM) mGAT1” value against mGAT1 stood at 4.73. On mGAT3, the “percentage of [3H]GABA reuptake retained, mGAT3” value was determined as 59%.
Turning to `CC(C)(C)CNC[C@@H](O)[C@H](Cc1ccccc1)NC(=O)CC1c2ccccc2-c2ccccc21` [Compound 27, 2-(9H-fluoren-9-yl)-N-((2S,3R)-3-hydroxy-4-(neopentylamino)-1-phenylbutan-2-yl)acetamide], the figures for the IC50 (in assay [1]; on mGAT4; in assay [4]) were 0.383 µM, 13.8 µM and 0.207 µM, respectively. In addition, the “percentage … mGAT2” value on mGAT2 is reported as 52%. Besides, the inhibition at 10 µM in assay [2] was found to be 53.5%. Moreover, on mGAT1, the “pIC50 (+/−SEM) mGAT1” value was 4.32. For the same compound, the inhibition at 50 µM in assay [3] came to 52.4%. Also, the “pIC50 (+/−SEM) mGAT3” value at mGAT3 turned out to be 4.52.
For `O=C(CC1c2ccccc2-c2ccccc21)N[C@@H](Cc1ccccc1)[C@H](O)CNCC1CC1` [Compound 28, N-((2S,3R)-4-((cyclopropylmethyl)amino)-3-hydroxy-1-phenylbutan-2-yl)-2-(9H-fluoren-9-yl)acetamide], the IC50 in assay [1] is 1.19 µM; at mGAT4 it was 12.6 µM; in assay [3], 12.3 µM; in assay [4] it was 0.246 µM. Further, the “percentage … mGAT2” value on mGAT2 is recorded as 10%. In addition, the inhibition at 10 µM in assay [2] amounted to 73.4%. Moreover, the “pIC50 (+/−SEM) mGAT1” value on mGAT1 worked out at 4.87. In addition, the “pIC50 (+/−SEM) mGAT3” value at mGAT3 came to 5.09.
